The values that follow come from patent US11339130B1 (Blade Therapeutics, Inc., priority 2016, dated 2022).

The target in assay [1] is T1, Human Calpain 1/NS1 (Homo sapiens, UniProt P07384).
T1 sequence (P07384 1-714): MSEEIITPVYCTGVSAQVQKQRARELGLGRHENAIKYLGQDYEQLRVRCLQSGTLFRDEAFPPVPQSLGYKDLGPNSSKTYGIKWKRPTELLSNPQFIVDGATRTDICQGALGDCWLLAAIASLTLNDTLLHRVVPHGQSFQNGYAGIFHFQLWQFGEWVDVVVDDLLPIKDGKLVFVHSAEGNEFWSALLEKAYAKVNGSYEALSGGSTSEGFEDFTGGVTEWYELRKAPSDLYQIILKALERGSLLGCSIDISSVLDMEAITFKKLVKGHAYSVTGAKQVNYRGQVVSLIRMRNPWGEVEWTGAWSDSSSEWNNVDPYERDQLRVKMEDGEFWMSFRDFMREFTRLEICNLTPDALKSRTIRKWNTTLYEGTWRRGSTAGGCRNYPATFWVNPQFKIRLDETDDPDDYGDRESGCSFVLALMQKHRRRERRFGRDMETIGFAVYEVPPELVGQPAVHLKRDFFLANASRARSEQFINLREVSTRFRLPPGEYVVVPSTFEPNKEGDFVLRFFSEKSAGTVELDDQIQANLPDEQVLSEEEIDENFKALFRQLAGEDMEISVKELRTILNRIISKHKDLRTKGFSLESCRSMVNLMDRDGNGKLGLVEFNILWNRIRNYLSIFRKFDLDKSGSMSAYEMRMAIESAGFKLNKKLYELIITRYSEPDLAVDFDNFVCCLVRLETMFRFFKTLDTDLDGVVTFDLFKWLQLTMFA
T1 sequence (P04632 1-268 partner): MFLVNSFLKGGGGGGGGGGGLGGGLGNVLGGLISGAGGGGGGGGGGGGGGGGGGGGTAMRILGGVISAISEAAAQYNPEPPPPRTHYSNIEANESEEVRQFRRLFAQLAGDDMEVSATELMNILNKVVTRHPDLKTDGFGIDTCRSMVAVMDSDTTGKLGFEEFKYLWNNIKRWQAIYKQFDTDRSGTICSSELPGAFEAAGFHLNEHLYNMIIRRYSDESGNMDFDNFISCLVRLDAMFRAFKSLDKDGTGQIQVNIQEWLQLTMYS
The experiment in a line: Calpain inhibition continuous fluorescence (FRET) assay, Human Calpain 1/NS1. The class given is biochemical. Particulars: Column A; read-out: Human Calpain 1/NS1 IC50. The essentials: (§1)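 Human calpains 1, 2 and 9 preincubated with inhibitor at 25 °C in 50 mM Tris pH 7.5, 100 mM NaCl, 1 mM DTT; reaction started with 5-FAM/QXL 520 FRET peptide plus CaCl2 for activation. Fluorescence (490/520 nm) followed 10 min; rates from 1-5 min slopes fitted to 4-parameter logistic for IC50.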

The target of assay [2] is T2, Human Calpain 2/NS1 (Homo sapiens, UniProt P17655).
T2 sequence (P17655 1-700): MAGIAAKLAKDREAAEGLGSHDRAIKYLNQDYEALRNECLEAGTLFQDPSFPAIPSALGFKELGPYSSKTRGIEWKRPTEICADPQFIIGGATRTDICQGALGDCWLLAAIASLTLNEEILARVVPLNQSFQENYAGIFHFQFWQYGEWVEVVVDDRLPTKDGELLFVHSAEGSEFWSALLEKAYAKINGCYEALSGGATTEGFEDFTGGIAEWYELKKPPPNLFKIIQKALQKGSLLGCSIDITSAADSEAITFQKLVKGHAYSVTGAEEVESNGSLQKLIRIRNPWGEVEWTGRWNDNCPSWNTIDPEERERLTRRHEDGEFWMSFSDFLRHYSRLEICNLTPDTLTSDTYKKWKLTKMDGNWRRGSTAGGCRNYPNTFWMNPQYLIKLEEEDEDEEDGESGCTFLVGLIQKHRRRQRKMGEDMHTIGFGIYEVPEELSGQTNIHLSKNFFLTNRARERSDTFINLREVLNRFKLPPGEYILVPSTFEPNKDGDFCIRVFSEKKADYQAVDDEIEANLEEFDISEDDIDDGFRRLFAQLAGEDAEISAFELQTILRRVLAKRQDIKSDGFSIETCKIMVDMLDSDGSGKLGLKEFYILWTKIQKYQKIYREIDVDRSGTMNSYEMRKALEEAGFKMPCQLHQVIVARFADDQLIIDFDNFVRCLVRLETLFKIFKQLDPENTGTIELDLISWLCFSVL
T2 sequence (P04632 1-268 partner): T1 sequence (P04632 1-268 partner)
Description: Calpain inhibition continuous fluorescence (FRET) assay, Human Calpain 2/NS1. In kind it is biochemical. The conditions noted are these: Column B; read-out: Human Calpain 2/NS1 IC50. The essentials: as §1

Assay [3] has as its target T3, Human Calpain 9/NS1 (Homo sapiens, UniProt O14815).
T3 sequence (O14815 1-690): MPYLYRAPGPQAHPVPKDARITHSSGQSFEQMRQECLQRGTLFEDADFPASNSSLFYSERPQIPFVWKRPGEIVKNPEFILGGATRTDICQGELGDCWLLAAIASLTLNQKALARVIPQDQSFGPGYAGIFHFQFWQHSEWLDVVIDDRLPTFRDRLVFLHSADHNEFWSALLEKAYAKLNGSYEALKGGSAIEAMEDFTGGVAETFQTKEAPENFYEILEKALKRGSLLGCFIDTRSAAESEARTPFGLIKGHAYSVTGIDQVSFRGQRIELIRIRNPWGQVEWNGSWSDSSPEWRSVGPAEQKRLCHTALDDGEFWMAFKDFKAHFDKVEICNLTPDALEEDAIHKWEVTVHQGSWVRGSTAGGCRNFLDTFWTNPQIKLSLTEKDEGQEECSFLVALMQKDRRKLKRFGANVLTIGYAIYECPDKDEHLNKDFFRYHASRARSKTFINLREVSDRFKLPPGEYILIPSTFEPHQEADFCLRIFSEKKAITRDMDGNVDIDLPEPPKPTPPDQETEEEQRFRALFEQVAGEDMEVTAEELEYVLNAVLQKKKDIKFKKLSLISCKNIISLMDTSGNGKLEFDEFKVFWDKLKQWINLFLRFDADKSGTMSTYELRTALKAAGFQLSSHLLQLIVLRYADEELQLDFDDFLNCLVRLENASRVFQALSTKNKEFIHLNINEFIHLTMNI
T3 sequence (P04632 1-268 partner): T1 sequence (P04632 1-268 partner)
The experiment in a line: Calpain inhibition continuous fluorescence (FRET) assay, Human Calpain 9/NS1. In kind it is biochemical. The conditions noted are these: Column C; read-out: Human Calpain 9/NS1 IC50. The essentials: as §1

The test system of assay [4] is Calpain activity in SH-SY5Y cells (SBDP-150). Description: SH-SY5Y Spectrin western blot assay (SBDP-150 breakdown product, A23187-induced). The class given is cell-based. Particulars: Homo sapiens; Column D; SH-SY5Y cells, A23187-induced SBDP-150; read-out: SH-SY5Y Spectrin IC50.
For assay [5], the system named is Calpain activity in SH-SY5Y cells. The experiment in a line: SH-SY5Y + AMC fluorescence assay (Suc-LLVY-AMC substrate). The class given is cell-based. The conditions noted are these: Column E, read-out: SH-SY5Y + AMC IC50.

With `Cc1cc(C(=O)N[C@@H](Cc2ccccc2)C(=O)C(N)=O)c(-c2ccccc2)s1` [Compound 222, (S)—N-(4-amino-3,4-dioxo-1-phenylbutan-2-yl)-5-methyl-2-phenylthiophene-3-carboxamide], the IC50 is less than 3 µM in assay [1]; less than 3 µM in assay [2]; less than 3 µM in assay [3]; 10 to 25 µM in assay [4]; greater than 25 µM in assay [5].

`Cc1cnn(-c2ccccc2)c1C(=O)N[C@@H](Cc1ccccc1)C(=O)C(N)=O` [Compound 223, (S)—N-(4-amino-3,4-dioxo-1-phenylbutan-2-yl)-4-methyl-1-phenyl-1H-pyrazole-5-carboxamide]: the IC50 in assay [1] is less than 3 µM; in assay [2], less than 3 µM; in assay [3], less than 3 µM; in assay [4], 10 to 25 µM; in assay [5], greater than 25 µM.

For the compound `CCc1nc(-c2ccccc2)c(C(=O)N[C@@H](Cc2ccccc2)C(=O)C(N)=O)o1` [Compound 226, (S)—N-(4-amino-3,4-dioxo-1-phenylbutan-2-yl)-2-ethyl-4-phenyloxazole-5-carboxamide], the IC50 is less than 3 µM in assay [1]; less than 3 µM in assay [2]; less than 3 µM in assay [3]; less than 10 µM in assay [4]; less than 10 µM in assay [5].

Take `CCOCc1ccc(-n2nc(C)cc2C(=O)N[C@@H](Cc2ccccc2)C(=O)C(N)=O)cc1` [Compound 227, (S)—N-(4-amino-3,4-dioxo-1-phenylbutan-2-yl)-1-(4-(ethoxymethyl)phenyl)-3-methyl-1H-pyrazole-5-carboxamide]: the IC50 was less than 3 µM in assay [1]; less than 3 µM in assay [2]; less than 3 µM in assay [3]; less than 10 µM in assay [4]; greater than 25 µM in assay [5].

With `Cc1cc(C(=O)N[C@@H](Cc2ccccc2)C(=O)C(N)=O)n(-c2ccc(COCc3ccccc3)cc2)n1` [Compound 228, (S)—N-(4-amino-3,4-dioxo-1-phenylbutan-2-yl)-1-(4-((benzyloxy)methyl)phenyl)-3-methyl-1H-pyrazole-5-carboxamide], the IC50 in assay [1] is less than 3 µM; in assay [2], less than 3 µM; in assay [3], less than 3 µM; in assay [4], less than 10 µM; in assay [5], greater than 25 µM.

In the case of `CCOCc1cccc(-n2nc(C)cc2C(=O)N[C@@H](Cc2ccccc2)C(=O)C(N)=O)c1` [Compound 229, (S)—N-(4-amino-3,4-dioxo-1-phenylbutan-2-yl)-1-(3-(ethoxymethyl)phenyl)-3-methyl-1H-pyrazole-5-carboxamide], the IC50 in assay [1] was less than 3 µM; in assay [2] it was less than 3 µM; in assay [3], less than 3 µM; in assay [4], less than 10 µM; in assay [5] it was less than 10 µM.

For `Cc1cc(C(=O)N[C@@H](Cc2ccccc2)C(=O)C(N)=O)n(-c2cccc(COCc3ccccc3)c2)n1` [Compound 230, (S)—N-(4-amino-3,4-dioxo-1-phenylbutan-2-yl)-1-(3-((benzyloxy)methyl)phenyl)-3-methyl-1H-pyrazole-5-carboxamide], the IC50 in assay [1] is less than 3 µM; in assay [2] it was less than 3 µM; in assay [3], less than 3 µM; in assay [4], less than 10 µM; in assay [5] it was less than 10 µM.

For the compound `Cc1cc(C(=O)N[C@@H](Cc2ccccc2)C(=O)C(N)=O)n(-c2cccc(COc3ccccc3)c2)n1` [Compound 231, (S)—N-(4-amino-3,4-dioxo-1-phenylbutan-2-yl)-3-methyl-1-(3-(phenoxymethyl)phenyl)-1H-pyrazole-5-carboxamide], the IC50 is less than 3 µM in assay [1]; less than 3 µM in assay [2]; less than 3 µM in assay [3]; greater than 25 µM in assay [4]; greater than 25 µM in assay [5].

Take `CCn1cc(C(=O)N[C@@H](Cc2ccccc2)C(=O)C(N)=O)c(-c2ccccc2)n1` [Compound 239, (S)—N-(4-amino-3,4-dioxo-1-phenylbutan-2-yl)-1-ethyl-3-phenyl-1H-pyrazole-4-carboxamide]: the IC50 was less than 3 µM in assay [1]; less than 3 µM in assay [2]; less than 3 µM in assay [3]; 10 to 25 µM in assay [4]; less than 10 µM in assay [5].

Consider `CC(C)n1cc(C(=O)N[C@@H](Cc2ccccc2)C(=O)C(N)=O)c(-c2ccccc2)n1` [Compound 242, (S)—N-(4-amino-3,4-dioxo-1-phenylbutan-2-yl)-1-isopropyl-3-phenyl-1H-pyrazole-4-carboxamide], for which the IC50 was less than 3 µM in assay [1]; less than 3 µM in assay [2]; less than 3 µM in assay [3]; greater than 25 µM in assay [4]; less than 10 µM in assay [5].

Turning to `CC[C@H](NC(=O)c1oc(C)nc1-c1ccccc1)C(=O)C(N)=O` [Compound 243, (S)—N-(1-amino-1,2-dioxopentan-3-yl)-2-methyl-4-phenyloxazole-5-carboxamide], the IC50 is less than 3 µM in assay [1]; less than 3 µM in assay [2]; less than 3 µM in assay [3]; 10 to 25 µM in assay [4]; greater than 25 µM in assay [5].

For the compound `Cc1cc(C(=O)N[C@@H](Cc2ccccc2)C(=O)C(N)=O)n(-c2ccnc(C)n2)n1` [Compound 244, (S)—N-(4-amino-3,4-dioxo-1-phenylbutan-2-yl)-3-methyl-1-(2-methylpyrimidin-4-yl)-1H-pyrazole-5-carboxamide], the IC50 in assay [1] was less than 3 µM; in assay [2], less than 3 µM; in assay [3], less than 3 µM; in assay [4], greater than 25 µM; in assay [5], less than 10 µM.

Regarding `Cc1cc(C(=O)N[C@@H](Cc2ccccc2)C(=O)C(N)=O)n(-c2ccncn2)n1` [Compound 245, (S)—N-(4-amino-3,4-dioxo-1-phenylbutan-2-yl)-3-methyl-1-(pyrimidin-4-yl)-1H-pyrazole-5-carboxamide], the IC50 is less than 3 µM in assay [1]; less than 3 µM in assay [2]; less than 3 µM in assay [3]; 10 to 25 µM in assay [4]; less than 10 µM in assay [5].
